Data as given in patent US9200008B2 (ASKA PHARMACEUTICAL CO., LTD., priority 2010, dated 2015).
Read-outs that look alike come from different tables or passages of the source.

Tests used:
Format in all cases: cell-based
[1] = test system: human fibrosarcoma cell lines (HT1080 cells); test: Calculation of IC50 value, cell proliferation inhibitory activity by XTT assay, HT1080 cells (Test Example 2)
Procedure: Human prostate cancer cell lines (PC-3 cells) and human fibrosarcoma cell lines (HT1080 cells) were seeded to 96-well microplates so as to provide a density of 1,300 cells/well and that of 3,100 cells/well, respectively. In the presence of 5% CO2 at 37° C., the PC-3 cells and the HT1080 cells were cultured for 48 hours and 24 hours, respectively. Thereafter, each one of test substances was added to each well. As a control of a medical agent, DMSO was added. After the addition, both cells were continuously cultured for 72 hours. […] The XTT labeling mixture was added to each well in an amount of 50 μL per well, and the cells were cultured for another 4 hours. A culture solution containing a test substance was used as a blank, and the absorbencies of a culture solution containing the XTT labeling mixture at a measurement wavelength (450 nm) and a control wavelength (650 nm) were measured by a plate reader. The difference between these absorbencies was evaluated as an activity of dehydrogenase of mitochondria derived from living cells. With respect to the following model formula of sigmoid curve, the convergent solution of each variable (gain, range, base and α) that minimize the residual sum of squares of the difference between these absorbencies and regressive prediction was determined, and then IC50 (=e^α) of each test substance was calculated.

[2] = test system: Human prostate cancer cell lines (PC-3 cells); test: Calculation of IC50 value, cell proliferation inhibitory activity by XTT assay, PC-3 cells (Test Example 2); settings: 72 hours culture with test substance, read-out: Cell proliferation inhibitory activity (IC50 value calculated from XTT assay), concentration showing 50% inhibitory activity, human prostate cancer cell lines (PC-3)
Procedure: Human prostate cancer cell lines (PC-3 cells) and human fibrosarcoma cell lines (HT1080 cells) were seeded to 96-well microplates so as to provide a density of 1,300 cells/well and that of 3,100 cells/well, respectively. In the presence of 5% CO2 at 37° C., the PC-3 cells and the HT1080 cells were cultured for 48 hours and 24 hours, respectively. Thereafter, each one of test substances was added to each well. As a control of a medical agent, DMSO was added. After the addition, both cells were continuously cultured for 72 hours. Then, an XTT labeling reagent containing 1 mg/mL of sodium 3′-[1-(phenylaminocarbonyl)-3,4-tetrazolium]-bis(4-methoxy-6-nitro)benzenesulfonate hydrate (XTT) and an electronic coupling reagent containing 1.25 mM N-methyl dibenzopyrazine methyl sulfate (PMS) were mixed at a ratio of 50:1 to give an XTT labeling mixture. The XTT labeling mixture was added to each well in an amount of 50 μL per well, and the cells were cultured for another 4 hours. A culture solution containing a test substance was used as a blank, and the absorbencies of a culture solution containing the XTT labeling mixture at a measurement wavelength (450 nm) and a control wavelength (650 nm) were measured by a plate reader. The difference between these absorbencies was evaluated as an activity of dehydrogenase of mitochondria derived from living cells. With respect to the following model formula of sigmoid curve, the convergent solution of each variable (gain, range, base and α) that minimize the residual sum of squares of the difference between these absorbencies and regressive prediction was determined, and then IC50 (=e^α) of each test substance was calculated.
The IC50 values of the compounds represented by the formula (1) or the salts thereof on two cancer cell lines according to the method of Test Example 2 were calculated, and the results are shown in Table A.

[3] = test system: Human prostate cancer cell lines (PC-3 cells); test: Measurement of cell death-inducing activity (Test Example 1); settings: PC-3, 48 h, 48 hours after addition, tested at 10, 1, 0.1, 0.025 and 0.00625 μmol/L, qualitative evaluation of 10 fields, read-out: Concentration showing the cell death-inducing activity (cell death-inducing rate not less than 40%)
How it was run: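 Compound treatment lasted 48 h at 10 to 0.00625 μmol/L (five levels, DMSO as control) on PC-3 cells pre-cultured 48 h at 37 °C, 5% CO2 after seeding at 1×10^5 cells/well. A cell death-inducing rate of 40% or more counted as active.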

[4] = HT1080 cells, 72 hours culture with test substance, XTT assay, read-out: Cell proliferation inhibitory activity (IC50 value calculated from XTT assay), concentration showing 50% inhibitory activity, human fibrosarcoma cell lines (HT1080)

Compound | minimal effective concentration [3] | further results
CCn1nnc2cc(COC(=O)Nc3sc(-c4ccc(C)cc4OC)nc3C)ccc21 [Example 9-25] |  | IC50 ([1]; read-out: Cell proliferation inhibitory activity (IC50 value calculated from XTT assay), concentration showing 50% inhibitory activity, human fibrosarcoma cell lines (HT1080), HT1080 cells, 72 hours culture with test substance, XTT assay): 1.64 nM; IC50 [2]: 0.81 nM
COc1cc(C)ccc1-c1cc(COC(=O)Nc2ccc3c(c2)nc2n3CCOC2)n(C)n1 [Example 13-101] | 0.00625 µM | IC50 [1, 4]: 4.19 nM; IC50 [2]: 1.64 nM
CCn1cnc2cc(COC(=O)Nc3sc(-c4ccccc4OC)nc3C)ccc21 [Example 9-57] | 0.025 µM | IC50 [2]: 2.17 nM
CCn1cc2cc(NC(=O)OCc3sc(-c4ccc(C)cc4C)nc3C)ccc2n1 [Example 13-53] | 0.1 µM | IC50 [2]: 6.35 nM
CCn1cc2cc(COC(=O)Nc3sc(-c4ccc(C)cc4OC)nc3C)ccc2n1 [Example 9-155] | 0.025 µM | IC50 [2]: 6.77 nM
CCn1cnc2cc(NC(=O)OCc3cc(-c4ccc(C)cc4OC)nn3C)ccc21 [Example 13-90] | 0.00625 µM | IC50 [2]: 0.43 nM
COc1cc(C)ccc1-c1nc(C)c(NC(=O)OCc2ccc3c(c2)nc2n3CCOC2)s1 [Example 9-94] | 0.00625 µM | IC50 ([1]; 72 h): 1.75 nM; IC50 [2]: 0.56 nM
COc1ccc(/C=N/NC(=O)c2cc(-c3ccccc3Cl)n[nH]2)cc1O [Example 22-1, 5-(2-Chlorophenyl)-2H-pyrazole-3-carboxylic acid [1-(3-hydroxy-4-methoxyphenyl)methylidene]hydrazide] | 10 µM | 
CCCCCCOc1ccc(/C=N/NC(=O)c2sc(-c3ccc(Cl)cc3)nc2C)cc1O [Example 23-105] | 10 µM | 
COc1cc(Cl)ccc1-c1cc(NC(=O)OCc2ccc3nn(C)cc3c2)n(C)n1 [Example 9-291] | 0.025 µM | 
Cc1cc(F)ccc1-c1nc(C)c(NC(=O)OCc2ccc3nn(C)cc3c2)s1 [Example 9-149] | 1 µM | 
COc1ccc(/C=N/NC(=O)c2cc(-c3ccc(Cl)cc3)c[nH]2)cc1O [Example 24-2, 4-(4-Chlorophenyl)-1H-pyrrole-2-carboxylic acid [1-(3-hydroxy-4-methoxyphenyl)methylidene]hydrazide] | 1 µM | 
CCn1nc(-c2ccc(Cl)cc2OC)cc1NC(=O)OCc1ccc2c(c1)ncn2C [Example 9-222] | 0.00625 µM | 
CCn1c(C)nc2cc(COC(=O)Nc3sc(-c4ccc(C)cc4C)nc3C)ccc21 [Example 9-88] | 0.1 µM | 
Cc1cc(Cl)ccc1-c1nc(C)c(C(=O)NNCc2ccc3c(ccn3C)c2)s1 [Example 17-1] | 0.1 µM | 
CCc1nc(-c2ccc(F)cc2C)sc1NC(=O)OCc1ccc2nn(C)cc2c1 [Example 9-363] | 1 µM | 
CCc1nc(-c2ccc(C)cc2C)sc1NC(=O)OCc1ccc2nn(C)cc2c1 [Example 9-366] | 0.1 µM | 
CCn1nc(-c2ccc(C)cc2OC)cc1COC(=O)Nc1ccc2c(c1)ncn2C [Example 13-89] | 0.00625 µM | 
CCn1ncc2cc(COC(=O)Nc3sc(-c4ccc(F)cc4C)nc3C)ccc21 [Example 9-140] | 0.025 µM | 
COc1ccc(/C=N/NC(=O)c2sc(-c3ccc(Cl)cc3OC)nc2C)cc1 [Example 23-79] | 0.1 µM | 
CCc1nc(-c2ccccc2OC)sc1NC(=O)OCc1ccc2c(c1)nc1n2CCCC1 [Example 9-351] | 1 µM | 
Cc1cc(/C=N/NC(=O)c2cnc(-c3ccccc3Cl)s2)cc(C)c1O [Example 23-143] | 1 µM | 

Compound | minimal effective concentration [3] | further results
CCc1nc(-c2ccc(Cl)cc2OC)sc1COC(=O)Nc1ccc2c(c1)ncn2C [Example 13-67] | 0.1 µM | 
Cc1ccc(-c2nc(C)c(NC(=O)OCc3ccc4c(c3)nc3n4CCCC3)s2)c(C)c1 [Example 9-113] | 0.025 µM | 
COc1cc(F)ccc1-c1nc(C)c(NC(=O)OCc2ccc3c(c2)nc2n3CCCC2)s1 [Example 9-111] | 0.1 µM | 
Cc1ccc(-c2cc(NC(=O)OCc3ccc4c(c3)nc3n4CCCC3)n(C)n2)c(C)c1 [Example 9-271] | 0.1 µM | 
CCn1nc(-c2ccc(C)cc2OC)cc1NC(=O)OCc1ccc2c(cnn2C)c1 [Example 9-284] | 0.1 µM | 
COc1ccc(/C=N/NC(=O)c2sc(-c3ccccc3OC)nc2C)cc1O [Example 23-14] | 0.1 µM | 
COc1cc(Cl)ccc1-c1nc(C)c(NC(=O)OCc2ccc3c(c2)nc2n3CCCC2)s1 [Example 9-1, [2-(4-Chloro-2-methoxyphenyl)-4-methylthiazol-5-yl]carbamic acid 1,2,3,4-tetrahydrobenzo[4,5]imidazo[1,2-a]pyridin-7-ylmethyl ester] | 0.025 µM | IC50 [1, 4]: 15.1 nM; IC50 [2]: 6.7 nM
CCc1nc(-c2ccccc2OC)sc1NC(=O)OCc1ccc2c(c1)nc1n2CCOC1 [Example 9-168] | 0.1 µM | 
CCc1nc(-c2ccc(F)cc2C)sc1NC(=O)OCc1ccc2c(c1)ncn2CC [Example 9-167] | 0.025 µM | 
Cc1nc(-c2ccc(Cl)cc2)sc1C(=O)N/N=C/c1ccc2occc2c1 [Example 23-161] | 1 µM | 
COc1ccc(CN(C)NC(=O)c2cc(-c3ccc(Cl)cc3OC)ns2)cc1 [Example 19-1, 3-(4-Chloro-2-methoxyphenyl)isothiazole-5-carboxylic acid N′-(4-methoxybenzyl)-N′-methyl hydrazide] | 10 µM | 
COc1cc(Cl)ccc1-c1nc(C)c(COC(=O)Nc2ccc3c(cnn3C)c2)s1 [Example 13-41] | 1 µM | 
O=C(N/N=C/c1ccc2c(c1)nc1n2CCOC1)c1cc(-c2ccc(Cl)cc2Cl)ns1 [Example 49-3] | 10 µM | 
Cc1ccccc1-c1nc(C)c(NC(=O)OCc2ccc3c(c2)ncn3C)s1 [Example 9-33] | 0.025 µM | 
COc1ccc(/C=N/NC(=O)c2cnc(-c3ccccc3C)s2)cc1O [Example 23-50] | 0.1 µM | 
COc1cc(C)ccc1-c1nc(C)c(NC(=O)OCc2ccc3nn(C)cc3c2)s1 [Example 9-145] | 0.025 µM | 
COc1cc(Cl)ccc1-c1cc(NC(=O)OCc2ccc3c(c2)nc2n3CCCC2)n(C)n1 [Example 9-267] | 0.025 µM | 
COc1cc(Cl)ccc1-c1nc(C)c(C(=O)N/N=C/c2ccc(O)c(O)c2)s1 [Example 23-77] | 1 µM | 
CCc1nc(-c2ccccc2OC)sc1NC(=O)OCc1ccc2c(c1)nc1n2CCC1 [Example 9-347] | 1 µM | 
COc1cc(Cl)ccc1-c1nc(C)c(NC(=O)OCc2ccc3c(c2)nc2n3CCC(C)C2)s1 (stereo not drawn) [Example 9-120] | 0.1 µM | 
CCn1ncc2cc(COC(=O)Nc3sc(-c4ccc(Cl)cc4C)nc3C)ccc21 [Example 9-141] | 0.025 µM | 
